# Measured values taken from patent US20250041434A1, “CEA ASSAY FOR PATIENT SELECTION IN CANCER THERAPY” (SANOFI, priority 2021, published 2025).
# How the values were obtained:
# [1] = test system: cancer cells; assay: cytotoxic activity of ADC metabolites; type: cell-based; conditions: through binding to tubulin and inhibition of microtubule polymerization
# [2] = target: T1, CEACAM1 (Homo sapiens, UniProt P13688); assay: recognition of other CEACAMs; type: binding
# T1 sequence (P13688 35-526): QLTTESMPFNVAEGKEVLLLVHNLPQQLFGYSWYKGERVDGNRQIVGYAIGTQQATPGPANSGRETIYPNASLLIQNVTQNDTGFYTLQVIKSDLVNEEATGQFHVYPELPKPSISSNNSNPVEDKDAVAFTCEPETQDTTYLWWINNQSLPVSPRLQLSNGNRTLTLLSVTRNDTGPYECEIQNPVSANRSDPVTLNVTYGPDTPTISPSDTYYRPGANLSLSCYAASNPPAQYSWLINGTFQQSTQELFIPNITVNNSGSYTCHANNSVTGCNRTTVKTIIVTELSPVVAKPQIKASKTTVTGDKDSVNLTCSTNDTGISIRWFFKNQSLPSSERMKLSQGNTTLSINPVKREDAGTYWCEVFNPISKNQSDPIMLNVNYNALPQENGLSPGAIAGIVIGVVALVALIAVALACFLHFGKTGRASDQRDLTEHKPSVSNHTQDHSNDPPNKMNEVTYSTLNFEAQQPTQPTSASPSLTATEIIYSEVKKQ
# [3] = target: T2, CEACAM8 (Homo sapiens, UniProt P31997); assay: recognition of other CEACAMs; type: binding
# T2 sequence (P31997 35-320): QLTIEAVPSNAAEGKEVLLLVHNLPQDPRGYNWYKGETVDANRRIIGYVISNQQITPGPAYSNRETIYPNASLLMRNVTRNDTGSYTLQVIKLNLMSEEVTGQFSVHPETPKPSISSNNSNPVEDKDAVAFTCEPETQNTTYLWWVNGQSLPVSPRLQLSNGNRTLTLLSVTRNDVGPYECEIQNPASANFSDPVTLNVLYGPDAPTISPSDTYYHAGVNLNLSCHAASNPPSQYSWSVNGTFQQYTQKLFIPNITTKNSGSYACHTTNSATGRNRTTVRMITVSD
# [4] = target: T3, A3B3 domain of human CEACAM5 (Homo sapiens, UniProt P06731); assay: domain specificity of binding
# T3 sequence (P06731 499-685 limits assumed): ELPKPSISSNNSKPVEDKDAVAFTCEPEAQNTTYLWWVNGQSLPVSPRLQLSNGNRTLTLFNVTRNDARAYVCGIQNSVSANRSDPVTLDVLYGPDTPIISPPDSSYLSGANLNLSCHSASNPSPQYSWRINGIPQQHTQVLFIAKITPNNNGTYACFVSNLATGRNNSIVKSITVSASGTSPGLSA
# [5] = test system: patient-derived CRC xenograft expressing CEACAM5; assay: circulating CEA in mice engrafted orthotopically with patient-derived CRC xenograft; type: in vivo; conditions: single active dose; rise in circulating CEA occurring with tumor growth
# Source text: However, specificities linked to the CEACAM5 target would potentially allow a more accurate follow-up of treatment impact on tumor growth by the monitoring CEA levels in the blood. Indeed, measurement of circulating CEA levels is of some use for CRC treatment monitoring. […] Similarly, modulation of circulating CEA may be a useful PDy marker of response to tusamitamab ravtansine. […] The usefulness of monitoring circulating CEA will be explored in this clinical study.
# [6] = target: T4, CEACAM6 (Homo sapiens, UniProt P40199); assay: recognition of other CEACAMs; type: binding
# T4 sequence (P40199 35-320): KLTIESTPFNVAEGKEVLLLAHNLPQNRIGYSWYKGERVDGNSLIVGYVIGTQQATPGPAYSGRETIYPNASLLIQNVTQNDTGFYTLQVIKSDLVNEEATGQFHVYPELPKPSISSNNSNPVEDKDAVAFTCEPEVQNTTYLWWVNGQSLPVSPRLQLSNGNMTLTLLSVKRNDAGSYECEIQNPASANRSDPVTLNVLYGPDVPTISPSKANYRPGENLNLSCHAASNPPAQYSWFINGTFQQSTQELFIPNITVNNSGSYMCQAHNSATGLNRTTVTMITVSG
# [7] = test system: NSQ NSCLC with high CEACAM5 expression; assay: TED13751 clinical study, tumor response (RECIST 1.1) in NSQ NSCLC high CEACAM5 expressers; type: in vivo, human; conditions: for anti-tumor activity, in words: participants heavily pre-treated for NSQ NSCLC, study TED13751
# Procedure: In this cohort of NSQ NSCLC participants with high CEACAM5 expression on tumor (≥2+ in intensity in ≥50%) expansion cohort NSQ NSCLC, 10 out of 13 responding participants had high baseline circulating CEA (≥100 ng/mL).
# Expression of CEACAM5 on tumor was assessed using CEACAM5 IHC test and circulating CEA and CEACAM5 assays for patients enrolled in clinical trial TED13751 (NCT02187848).
# Circulating CEA was determined locally using the assay which was of routine use in the institution. In vitro diagnostic CEA assays measure CEA not claiming specificity for CEACAM5.
# The study will be divided in […] parts: The Escalation Phase and the Expansion Phase.
# The expansion phase will be conducted with every 2 weekly dosing schedule. During the Expansion Phase, the population to be treated will be restricted to patients with advanced diseases in colorectal cancer (CRC), NSQ NSCLC, small cell lung cancer (SCLC), and gastric adenocarcinoma (including signet-ring cell carcinoma subtype as well as esophago-gastric junction (EGJ) adenocarcinomas of the Siewert Types II and III). CEACAM5 expression of ≥2+ in intensity involving ≥50% of the tumor cell population will be documented during pre-screening on the most recent archival tissue sample and using local IHC evaluation for patients potentially eligible for study treatment in the gastric adenocarcinoma cohort. There are 2 independent NSQ NSCLC expansion phase cohorts: The first one (Lung cohort) includes patients with high CEACAM5 expression (≥2+ in intensity involving at least 50% of the tumor cell population). The second cohort (Lung bis cohort) will include patients that pre-screened positive at moderate intensity (≥2+ between ≥1% to <50% of the tumor cell population). The SCLC cohort includes patients with CEACAM5 expression of ≥2+ in intensity involving ≥1% of the tumor cell population. […] Full screening will only be done for archival cases meeting the above definition. No CEACAM5 pre-screening is required for CRC patients potentially eligible for the CRC expansion cohort. The level of CEACAM5 expression will be documented essentially retrospectively and centrally on both archival and fresh (baseline sample) tumor tissues. Confirmation of CEACAM5 tumor expression will be done retrospectively in a central laboratory on fresh tumor tissue collected at baseline (mandatory biopsy in the Expansion Phase only, on all patients with CRC and gastric cancer, and on NSQ NSCLC as well as SCLC patients with a lesion amenable to biopsy). If sufficient archived tumor material is available, a central evaluation will also be done retrospectively to gain knowledge on the variability in evaluation of the expression. The results of the retrospective analyses will have no impact on patients' treatment. It will be used for the better interpretation of the overall response, and as the baseline for comparison with CEACAM5 expression upon progression (exploration for loss of CEACAM5 as mechanism of acquired resistance).
# In the Expansion cohorts, the assessment of response to tusamitamab ravtansine is a primary objective. All patients treated in the Expansion Phase must have at least one measurable lesion for inclusion. Tumor assessment will be made at least every 4 cycles. Decision to pursue treatment will be based on the response evaluation made by the Investigator, however, measures of lesions will be collected in the electronic case report forms for a determination of response by Sponsor. A partial or complete response must be confirmed on a second examination done at least 4 weeks apart, in order to be documented as a confirmed response to therapy.
# The RECIST v1.1 criteria will be followed for assessment of tumor response.
# [8] = TED13751 Main dose escalation, maximum tolerated dose; type: in vivo, human; conditions: q2w, IV infusion
# Source text: The dose escalation decision will be based on the dose limiting toxicities (DLTs) observed during Cycle 1+Cycle 2 in q2w cycle and during Cycle 1 in q3w cycle, whether related or not to the investigational medicinal product (IMP) in the absence of clear evidence to the contrary after validation by the Study Committee, and if not related to the progression of disease. Before escalating the tusamitamab ravtansine dose to the next level, the safety data, and especially DLTs, ocular and cardiac adverse events (AEs) will be reviewed by the Study Committee. Cumulative toxicities observed on subsequent administrations will also be considered for the dose escalation process and the dose selection decision. […]
# For the accelerated dose escalation phase, as well as for the Bayesian EWOC, a minimum of […] duration (˜4 weeks) will be mandatory between the last patient who has received Day 1 of Cycle 1 at DL n, and the first patient who will receive Day 1 of Cycle 1 at DL n+1. The dose determined to be the maximum tolerated dose (MTD) will be tested further in the Expansion cohorts.
# The first loading dose tested will be 120 mg/m^2; if this first dose is safe, then dose escalation will proceed to test next 135 mg/m^2, and 150 mg/m^2. […] The determined MTD or safe MAD will be used for CRC-L cohort.
# [9] = target: T5, CEACAM7 (Homo sapiens, UniProt Q14002); assay: recognition of other CEACAMs; type: binding
# T5 sequence (Q14002 36-242): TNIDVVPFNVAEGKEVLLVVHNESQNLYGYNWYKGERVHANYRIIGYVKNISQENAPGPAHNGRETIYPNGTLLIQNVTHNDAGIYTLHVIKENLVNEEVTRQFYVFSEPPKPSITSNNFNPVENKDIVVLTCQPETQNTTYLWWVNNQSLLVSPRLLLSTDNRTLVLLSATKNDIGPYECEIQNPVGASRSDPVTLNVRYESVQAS
# [10] = test system: relevant experimental model; assay: single administration in relevant experimental model; type: in vivo
# [11] = preliminary experiments on effector activity
# [12] = Phase 1/2 study adverse drug reactions; type: in vivo, human; conditions: heavily pre-treated high CEACAM5 expressers for NSCLC
# Procedure: The ADC was analyzed in a Phase 1/2 study in heavily pre-treated high CEACAM5 expressers for NSCLC.
# [13] = test system: human primary colon and stomach tumors; conditions: mice bearing human primary colon and stomach tumors; see WO 2014/079886; cited from earlier work
# [14] = test system: tumor cells; conditions: see WO 2014/079886; cited from earlier work
# [15] = test system: cells expressing CEACAM5; conditions: see WO 2014/079886; cited from earlier work
# [16] = Phase 1/2 study, heavily pre-treated high CEACAM5 expressers for NSCLC
compound,measurement,setting,value
"COc1cc2cc(c1Cl)N(C)C(=O)CC(OC(=O)C(C)N(C)C(=O)CCC(C)(C)S)C1(C)OC1C(C)C1CC(O)(NC(=O)O1)C(OC)/C=C/C=C(\C)C2 (stereo not shown) [DM4, N2′-deacetyl-N-2′(4-methyl-4-mercapto-1-oxopentyl)-maytansine]",cytotoxic activity,[1],potent cytotoxic activity
COc1cc2cc(c1Cl)N(C)C(=O)CC(OC(=O)C(C)N(C)C(=O)CCC(C)(C)SC)C1(C)OC1C(C)C1CC(O)(NC(=O)O1)C(OC)C=CC=C(C)C2 (stereo not shown) [Me-DM4],cytotoxic activity,[1],potent cytotoxic activity
Tusamitamab ravtansine: immunoconjugate ADC combining humanized anti-CEACAM5 antibody tusamitamab and maytansinoid DM4 via SPDB linker; CAS Registry No. 2254086-60-5,recognition of CEACAM1,[2],does not recognize
same,recognition of CEACAM8,[3],does not recognize
same,binding to A3B3 domain of human CEACAM5,[4],specifically binds
same,circulating CEA,[5],prevented a rise in circulating CEA
same,recognition of CEACAM6,[6],does not recognize
same,participants who had PR,"[7]; 100 mg/m^2 Q2W, 64 participants, RECIST 1.1",13
same,overall response rate,"[7]; 100 mg/m^2 Q2W, 64 participants, RECIST 1.1, 95% CI: 12.27% to 31.71%",20.3%
same,"Duration of Response (DoR), in words",[7]; [16],competitive
same,"Overall Response Rate (ORR), in words",[7]; [16],competitive
same,Responses (%),"[7]; baseline circulating CEA <5 μg/L (9 patients), 100 mg/m^2 Q2W",22.2%
same,Responses (%),"[7]; baseline circulating CEA <100 μg/L (37 patients), 100 mg/m^2 Q2W",8.1%
same,Responses (%),"[7]; baseline circulating CEA >3 μg/L (58 patients), 100 mg/m^2 Q2W",22.4%
same,Responses (%),"[7]; baseline circulating CEA ≥5 μg/L (53 patients), 100 mg/m^2 Q2W",20.8%
same,Responses (%),"[7]; baseline circulating CEA ≥100 μg/L (25 patients), 100 mg/m^2 Q2W",40.0%
same,share of the 13 responders with baseline circulating CEA level ≥100 μg/L,"[7]; high expressers cohort, 100 mg/m^2 Q2W",77%
same,"anti-tumor activity, in words",[7],encouraging anti-tumor activity
same,"anti-tumor activity, in words",[7]; listed as tusamitamab ravtansine,Encouraging preliminary anti-tumor activity
same,maximum tolerated dose (MTD),[8],100 mg/m^2
same,recognition of CEACAM7,[9],does not recognize
same,tumor regressions,[10],induces regressions
same,effector activity,[11],devoid of effector activity
same,hematological/nerve toxicity,[12],minimal
same,most common Adverse Drug Reactions (ADRs),[12]; reversible without treatment discontinuation,ocular toxicity
same,tumor growth inhibition in vivo,[13],markedly inhibit tumor growth
same,cytotoxic activity on tumor cells in vitro,[14],induce cytotoxic activity
same,internalization into cells expressing CEACAM5 after binding,[15],capable of being internalized
